Measured values: BindingDB's records for doi:10.1021/jm5006226 (Bristol Myers Squibb, 2014)

Test: Antagonist activity at P2Y1 receptor in platelet-enriched human plasma assessed as 10 uM ADP-induced platelet aggregation preincubated for 1 min followed by ADP induction measured at 5 mins by aggregometric analysis

| SMILES | IC50 |
| --- | --- |
| CCOC(=O)C1(C)CN(c2ccccc2NC(=O)Nc2ccc(OC(F)(F)F)cc2)c2c(O)ccc(Cl)c21 (stereo not drawn) | 3100 nM |
| CC1(C)CN(c2ccccc2NC(=O)Nc2ccc(OC(F)(F)F)cc2)c2c(O)cc(F)c(-c3cnc(Cl)cn3)c21 | 260 nM |
| CC1(C)CN(c2ccccc2NC(=O)Nc2ccc(OC(F)(F)F)cc2)c2c(O)c(F)cc(-c3ccc(Cl)cc3)c21 | 300 nM |
| CC1(C)CN(c2ccccc2NC(=O)Nc2ccc(OC(F)(F)F)cc2)c2c(O)ccc(-c3ccc(F)c(F)c3)c21 | 400 nM |
| CC1(C)CN(c2ccccc2NC(=O)Nc2ccc(OC(F)(F)F)cc2)c2c(O)ccc(-c3cccc(F)c3)c21 | 240 nM |
| CC(C)(C)CN1CCC2(CC1)CN(c1ccccc1NC(=O)Nc1ccc(OC(F)(F)F)cc1)c1c(O)cc(F)c(-c3ccc(F)cc3)c12 | 140 nM |
| CC(C)(C)CN1CCC2(CC1)CN(c1ccccc1NC(=O)Nc1nc3ccc(Cl)nc3s1)c1c(O)cc(F)c(-c3ccc(F)cc3)c12 | 180 nM |
| CC1(CC(F)(F)F)CN(c2ccccc2NC(=O)Nc2ccc(OC(F)(F)F)cc2)c2c(O)ccc(Cl)c21 (stereo not drawn) | 2900 nM |
| CC1(C)CN(c2ccccc2NC(=O)Nc2ccc(OC(F)(F)F)cc2)c2c(O)cc(F)c(-c3ccc(F)cc3)c21 | 190 nM |
| Cc1nc(NC(=O)Nc2ccccc2N2CC(C)(C)c3c(-c4ccc(F)cc4)ccc(O)c32)cs1 | 430 nM |
| CCOC(=O)C1(C)CN(c2ccccc2NC(=O)Nc2nc3ccc(Cl)nc3s2)c2c(O)ccc(Cl)c21 (stereo not drawn) | 610 nM |
| CC1(C)CN(c2ccccc2NC(=O)Nc2nc3ccc(Cl)nc3s2)c2c(O)ccc(-c3ccc(F)cc3)c21 | 230 nM |
| CC1(C)CN(c2ccccc2NC(=O)Nc2ccc(OC(F)(F)F)cc2)c2c(O)ccc(Cl)c21 | 870 nM |
| CC1(C)CN(c2ccccc2NC(=O)Nc2ccc(OC(F)(F)F)cc2)c2c(O)c(F)cc(-c3ccc(F)cc3)c21 | 390 nM |
| CC1(C)CN(c2ccccc2NC(=O)Nc2nc3ccc(Cl)nc3s2)c2c(O)ccc(Cl)c21 | 1400 nM |
| CC1(C)CN(c2ccccc2NC(=O)Nc2ccc(OC(F)(F)F)cc2)c2c(O)ccc(-c3ccc(C(F)(F)F)cc3)c21 | 230 nM |
| CC1(C)CN(c2ccccc2NC(=O)Nc2ccc(OC(F)(F)F)cc2)c2c(O)ccc(-c3ccc(Cl)cc3)c21 | 210 nM |
| CC1(C)CN(c2ccccc2NC(=O)Nc2ccc(OC(F)(F)F)cc2)c2c(O)cc(F)c(-c3ncc(F)cn3)c21 | 950 nM |
| CC1(C)CN(c2ccccc2NC(=O)Nc2ccc(OC(F)(F)F)cc2)c2c(O)cc(F)c(-c3ccc(Cl)cc3)c21 | 240 nM |
| CC(C)(C)CN1CCC2(CC1)CN(c1ccccc1NC(=O)Nc1ccc(OC(F)(F)F)cc1)c1c(O)cc(F)c(-c3ccc(Cl)cc3)c12 | 200 nM |
| CC(C)(C)CN1CCC2(CC1)CN(c1ccccc1NC(=O)Nc1nc3ccc(Cl)nc3s1)c1c(O)ccc(Cl)c12 | 130 nM |

Further lines, results first:

| IC50 | SMILES |
| --- | --- |
| 80 nM | CC1(C)CN(c2ccccc2NC(=O)Nc2ccc(OC(F)(F)F)cc2)c2c(O)ccc(-c3ccccc3F)c21 |
| 180 nM | CC1(C)CN(c2ccccc2NC(=O)Nc2ccc(OC(F)(F)F)cc2)c2c(O)ccc(-c3ccccc3)c21 |
| 160 nM | CC1(C)CN(c2ccccc2NC(=O)Nc2ccc(OC(F)(F)F)cc2)c2c(O)ccc(-c3ccc(F)cc3)c21 |
| 150 nM | CC1(C)CN(c2ccccc2NC(=O)Nc2ccc(OC(F)(F)F)cc2)c2c(O)cc(F)c(-c3ccc(C(F)(F)F)nc3)c21 |
| 90 nM | CC(C)(C)CN1CCCC1c1ccc(NC(=O)Nc2ccccc2N2CC(C)(C)c3c(-c4ccc(F)cc4)ccc(O)c32)cc1 (stereo not drawn) |
| 180 nM | CC1(C)CN(c2ccccc2NC(=O)Nc2ccc(OC(F)(F)F)cc2)c2c(O)ccc(-c3cc(F)cc(F)c3)c21 |
| 130 nM | CC1(C)CN(c2ccccc2NC(=O)Nc2ccc(OC(F)(F)F)cc2)c2c(O)cc(F)c(-c3ccc(Cl)s3)c21 |
| 50 nM | CC(C)CN1CCCC1c1ccc(NC(=O)Nc2ccccc2N2CC(C)(C)c3c(-c4ccc(F)cc4)ccc(O)c32)cc1 (stereo not drawn) |
| 160 nM | CC1(C)CN(c2ccccc2NC(=O)Nc2ccc(OC(F)(F)F)cc2)c2c(O)cc(F)c(-c3cc(F)nc(F)c3)c21 |
| 90 nM | CC1(C)CN(c2ccccc2NC(=O)Nc2csc(Cl)n2)c2c(O)ccc(-c3ccc(F)cc3)c21 |
| 160 nM | CC1(C)CN(c2ccccc2NC(=O)Nc2ccc(OC(F)(F)F)cc2)c2c(O)ccc(-c3ccc(F)cc3F)c21 |
| 110 nM | CC1(C)CN(c2ccccc2NC(=O)Nc2ccc(OC(F)(F)F)cc2)c2c(O)cc(F)c(-c3ccc(C(F)(F)F)cn3)c21 |
